This note sets out measurements from patent publication US20220323383A1, “SMALL-MOLECULAR ADJUVANTS AND IMPLEMENTATIONS THEREOF” (JAWAHARLAL NEHRU CENTRE FOR ADVANCED SCIENTIFIC RESEARCH, priority 2019, published 2022).

Common to all, as to assay type: cell-based
One series concerns human RBCs. Description: Haemolytic activity. As to conditions: concentration at which 50% of human blood cells are lysed; 1 h at 37° C. A digest of the protocol: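 Human erythrocytes (5 vol % in PBS, pH 7.4) were incubated with serially diluted compound for 1 h at 37 °C, and A540 of the supernatant was read after centrifugation. Hemolysis was scaled between untreated (0%) and Triton X-100 (100%) wells. HC50 is the concentration lysing 50% of cells.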

Another series relates to A. baumannii R674. Description: Bactericidal time-kill kinetics. As to conditions: combination of rifampicin and Compound 13 (4 μg/mL+2 μg/mL and 8 μg/mL+2 μg/mL). Here is the method: (§1) Briefly, A. baumannii R674 and P. aeruginosa R590 were grown in nutrient broth at 37° C. for 6 h. Combinations of Compound 13 and rifampicin (4 μg/mL+2 μg/mL and 8 μg/mL+2 μg/mL) and rifampicin alone (32 μg/mL) were inoculated with aliquots of A. baumannii R674 suspended in fresh media at ˜1.8×10^5 CFU/mL. Similarly, combination of […] and fusidic acid (8 μg/mL+1 μg/mL), Compound 15 (128 μg/mL) and fusidic acid (16 μg/mL) were inoculated with aliquots of P. aeruginosa R590 suspended in fresh media at ˜1.8×10^5 CFU/mL. After specified time intervals (0, 1, 2, 4, 6 and 12 h), 20 μL aliquots were serially diluted 10-fold in 0.9% saline, plated on sterile MacConkey agar plates and incubated at 37° C. overnight. The viable colonies were counted the next day and represented as logio (CFU/mL) (FIG. 1). Combination of rifampicin and Compound 13 could completely kill the bacteria in 2 h and combination of fusidic acid and Compound 14 could kill bacteria in 12 h.

In the next series the test system is P. aeruginosa R590. Description: Bactericidal time-kill kinetics. The following applies: combination with fusidic acid (8 μg/mL+1 μg/mL). Here is the method:
as §1

Counter-ions that a name gives are not always drawn.

For `NCCCC[C@H](N)C(=O)NCCCCCCN(CCCCCCNC(=O)[C@@H](N)CCCCN)C(=O)Cc1cccc2ccccc12` [Compound 13, N,N-bis-[(6-(^LLys)amido)hexyl] naphthyl ethanamide tetrakistrifluoroacetate], the concentration for 50% haemolysis (HC50) in the series on human RBCs is >1024 µg/mL. Besides, the “Time to completely kill the bacteria” value with A. baumannii R674 stood at 2 h.

Consider `NCCCC[C@H](N)C(=O)NCCCCCCN(CCCCCCNC(=O)[C@@H](N)CCCCN)C(=O)CC(c1ccccc1)c1ccccc1` [Compound 14, N,N-bis-[(6-(^LLys)amido)hexyl] 3,3-diphenyl propanamide tetrakis trifluoroacetate], for which the concentration for 50% haemolysis (HC50) in the series with human RBCs was >1024 µg/mL. Also, the “Time to kill bacteria” value with P. aeruginosa R590 is 12 h.

As usually defined, the HC50 is the concentration giving 50% haemolysis. The low end stands for stronger haemolysis, the high end for weaker haemolysis.
